Assay [1] concerns the target T1, peripheral opioid receptors (Mus musculus, UniProt P42866).
T1 construct: Mice maintained (6 mice/cage) on 0.01M saccharin water with 1 g/1 morphine sulfate; from tissue; host or cells: living morphine-maintained mice (in vivo test; endogenous receptor)
The experiment in a line: precipitated diarrhea in morphine-maintained mice (peripheral opioid activity) and comparison with the writhing test. To be noted: for Ratio (AD50 mouse writhing test / ED50 mouse diarrhea test): higher ratio = greater relative antagonism of peripheral opioid receptors; for ED50: mouse, 0.5 h, morphine-maintained mice, antagonist subcutaneous or oral, 30 min observation. Format: in vivo. On the procedure:
Determinations of peripheral opioid activity were conducted. Mice maintained (6 mice/cage) on 0.01M saccharin water with 1 g/1 morphine sulfate for a minimum of 10 days with mice averaging 3.0^+ g water/mouse/day for at least three days are used as subjects. The morphine water was removed 45 min. prior to injection with the proposed opioid antagonist. Initial testing consisted of 5 mice/dose of compound. The antagonist was given by the subcutaneous or oral, route of administration,and the mice were placed in 11-14"×4 7/12 I.D. clear plastic cylinders with white paper towels used for a floor.
The mice were then monitored visually for 30 minutes post-injection for the presence of jumping and of diarrhea. Jumping was scored as positive if at least one jump occurred in 30 min. Diarrhea was scored as positive when feces were moist enough to stain the white paper at the base of the cylinder. After 30 minutes of testing, the mice were placed back in original cages, put back on morphine water, and not tested again for 48 hrs. Lower doses of the antagonist compounds were tested until threshold doses for diarrhea were determined. Diarrhea is a peripherally mediated sign of precipitated opiate abstinence.
The extent of the effect on peripheral activity compared to central activity of the present compounds can-be determined by comparing the AD50 for the mouse writhing test with the ED50 for the mouse diarrhea test. The higher the ratio, the greater the relative antagonism of the peripheral opioid receptors by a particular compound.
Background: An intraperitoneal irritant provokes the stretching counted in writhing tests.

The next assay concerns the target T2, mu receptor (Rattus norvegicus, UniProt P33535).
T2 construct: rat whole brain minus cerebellum for mu was homogenized; from tissue; host or cells: brain of male Sprague Dawley rats, whole brain minus cerebellum, homogenate fraction
In words: opioid receptor binding assay, [3H] NAL (tritiated naloxone), mu receptor. Further details: species or system rat (Male Sprague Dawley), brain minus cerebellum. To be noted: for inhibition at 0.01 µM / inhibition at 0.1 µM: 20 min. The procedure: This assay was conducted by the following procedure.
Male Sprague Dawley rats for mu site experiments were sacrificed via decapitation and the brains were removed. The brain tissue, rat whole brain minus cerebellum for mu was homogenized in a Teflon and glass tissue homogenizer. A supernatant I, pellet IV, fraction was frozen in a nitrogen freezer at 1.33 g/ml concentration and stored for not longer than five weeks prior to use. Pellets were rehydrated with physiological buffer prior to use.
The reaction was initiated by the addition of the resuspended tissue which had been preincubated at 37° C. for 20 minutes. The reaction mixture was incubated in a 37° C. water bath for 20 minutes. The reaction was terminated by rapid filtration, (Brandel Cell Harvestor), through Whatman GF/B glass filters that had been presoaked in Krebs-Hepes buffer pH 7.4. The filters were then washed 2x with 5 ml of ice cold Krebs-Hepes buffer pH 7.4. Washed filters were placed in scintillation vials and 10 ml RedySolv, (Brandel), was added and samples counted in a Searle D-300 beta counter. Means and standard error statistics were calculated for triplicate experimental determinations in certain cases. The incubation time for the reaction mixture was 20 minutes at 37° C.
Ki values were calculated using a minitab statistical program according to the following formula: [formula] wherein IC50 is the concentration at which 50% of the ^3 H ligand is displaced by the test compounds and KD is the dissociation constant for the ^3 H ligand at the receptor site. KD can be determined as described by Bennett, "Methods in Binding Studies", Neurotransmitter Receptor Binding, Yamamura, et al., ed., p. 57-90, Raven Press, N.Y. (1978) incorporated herein by reference.
In the Table, column 1 sets forth the Example Number of the compound evaluated, column 2 the Ki value in nanomolar (nM) at the mu receptor and columns 3 and 4 the percent displacement by the test compound at the indicated concentration, i.e., 10 nm or 100 nm.

The target of another assay is T3, opioid receptor (Mus musculus, UniProt P42866).
T3 construct: Five CF-1 male mice (Charles River, Portage, Mich.); from tissue; host or cells: living CF-1 male mice (in vivo test; endogenous receptor)
T3 sequence (P42866 whole entry): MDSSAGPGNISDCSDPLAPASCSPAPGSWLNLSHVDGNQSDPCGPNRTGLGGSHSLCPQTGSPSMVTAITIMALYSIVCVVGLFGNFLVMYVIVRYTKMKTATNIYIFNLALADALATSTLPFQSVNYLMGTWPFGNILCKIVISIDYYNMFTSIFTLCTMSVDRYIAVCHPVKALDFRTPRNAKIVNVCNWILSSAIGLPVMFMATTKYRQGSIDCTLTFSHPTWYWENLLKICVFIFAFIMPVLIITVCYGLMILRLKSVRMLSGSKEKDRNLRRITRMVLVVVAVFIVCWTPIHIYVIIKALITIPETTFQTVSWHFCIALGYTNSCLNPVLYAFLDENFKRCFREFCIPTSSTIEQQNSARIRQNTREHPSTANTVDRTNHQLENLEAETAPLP
In words: mouse writhing analgesis test: block of morphine-induced analgesia. Further details: unit not given here. The settings on record: dose of antagonist that reduced the inhibition of writhing produced by 1.25 mg/kg morphine sulfate to 50%; subcutaneous, 20 min before acetic acid. Format: in vivo, CF-1 male mice. The procedure:
In order to determine in vivo opioid receptor antagonism, the mouse writhing analgesis test was used. Test compounds were measured for their ability to block morphine-induced analgesia.
Five CF-1 male mice (Charles River, Portage, Mich.), weighing approximately 20 g after being fasted overnight, were observed simultaneously for the writhing response. The writhing response was defined as a contraction of the abdominal musculature, followed by the extension of the hind limbs, and was induced by the intraperitoneal adminstration of 0.6% acetic acid in a volumne of 1 ml/100 g body weight. The observation period was 10 min. in duration, beginning 5 min. after injection of acetic acid. The percent inhibition of writhing was calculated from the average number of writhes in the control (non-drug) group. Each data point is the mean (±standarderror) for five mice. The ED50 was defined as the dose of agonist that inhibited mean writhing by 50%. […] Each mouse was only used once. All drugs were administered subcutaneously (1 ml/100 g bwt) 20 min. before the injection of acetic acid.

The mark [2] stands for this setting: read-out: % displacement at 10 nM, 10 nM test compound, [3H] naloxone 0.5 nM.
Setting [3] is: read-out: % displacement at 100 nM, 100 nM test compound, [3H] naloxone 0.5 nM.
The mark [4] stands for this setting: read-out: % displacement at 100 nM.

Where a name gives a salt, the structure may show the parent alone. Read-outs that look alike come from different tables or passages of the source.

What is called ED50 is the midpoint of the dose-response relation. What is called Ki is the dissociation constant of the complex between target and ligand, obtained from inhibition or displacement.

T2 sequence (P33535 whole entry): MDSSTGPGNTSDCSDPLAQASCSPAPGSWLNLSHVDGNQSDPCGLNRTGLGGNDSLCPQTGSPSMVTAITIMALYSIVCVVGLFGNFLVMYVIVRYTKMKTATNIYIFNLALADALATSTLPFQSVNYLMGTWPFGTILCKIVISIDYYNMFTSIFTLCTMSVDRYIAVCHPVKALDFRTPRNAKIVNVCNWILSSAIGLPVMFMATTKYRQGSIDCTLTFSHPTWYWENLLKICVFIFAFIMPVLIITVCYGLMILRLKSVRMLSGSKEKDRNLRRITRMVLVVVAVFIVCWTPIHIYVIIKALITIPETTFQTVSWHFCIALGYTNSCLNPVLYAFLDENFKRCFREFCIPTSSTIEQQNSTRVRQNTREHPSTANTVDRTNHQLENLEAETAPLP
T1 sequence (P42866 whole entry): as the sequence (P42866 whole entry) above

With `CNC(=O)CCCNC(=O)C(CCN1CC[C@@](C)(c2cccc(O)c2)[C@@H](C)C1)C1CCCCC1` (relative stereo) [Example 24, N-methyl-4-[[4-[4-(3-hydroxyphenyl)-3,4-dimethyl-1-piperidinyl]-2-cyclohexyl-1-oxobutyl]amino]butanamide monohydrochloride monohydrate], in assay [1], the “Ratio (AD50 mouse writhing test / ED50 mouse diarrhea test)” value is on record as above 400 and it took a dose of 0.1 mg/kg to reach the 50% effect level (ED50). The compound also gave a Ki on mu receptor of 0.45 nM. In addition, the inhibition at 0.01 µM at mu receptor (setting [2]) came out at 100%. Also, the inhibition at 0.1 µM on mu receptor (setting [3]) was 100%. The AD50 at opioid receptor is reported as above 40.
With `C[C@H]1CN(CCC(C(=O)NCCC(=O)OCc2ccccc2)C2CCCCC2)CC[C@@]1(C)c1cccc(O)c1` (relative stereo) [Example 25, 3-[[2-cyclohexyl-4-[4-(3-hydroxyphenyl)-3,4-dimethyl-1-piperidinyl]-1-oxobutyl]amino]propanoic acid phenylmethyl ester hydrochloride monohydrate], in assay [1], the “Ratio (AD50 mouse writhing test / ED50 mouse diarrhea test)” value amounted to 40 and it took a dose of 0.29 mg/kg to reach the 50% effect level (ED50). The Ki on mu receptor worked out at 0.22 nM. For the same compound, the inhibition at 0.01 µM on mu receptor (setting [2]) was determined as 100%. Besides, the inhibition at 0.1 µM at mu receptor (setting [3]) amounted to 100%. The compound also displayed an AD50 on opioid receptor of 11.5.
Take `C[C@H]1CN(CCC(C(=O)NCCC(=O)O)C2CCCCC2)CC[C@@]1(C)c1cccc(O)c1` (relative stereo) [Example 26, 3-[4-[3,4-dimethyl-4-(-3-hydroxyphenyl)-1-piperidinyl]-2-cyclohexyl-1-oxobutylamino]-propanoic acid monohydrate]: in assay [1], the “Ratio (AD50 mouse writhing test / ED50 mouse diarrhea test)” value worked out at 250 and the ED50 came out at 0.03 mg/kg. The affinity on mu receptor, expressed as Ki, was 1.17 nM. In addition, the inhibition at 0.01 µM on mu receptor (setting [2]) came to 76%. Also, the inhibition at 0.1 µM on mu receptor (setting [3]) was found to be 91%. This compound also yielded an AD50 on opioid receptor of 7.5.
In the case of `C[C@H]1CN(CCC(C(=O)NCC(=O)O)C2CCCCC2)CC[C@@]1(C)c1cccc(O)c1` (relative stereo) [Example 27, 2-[[2-cyclohexyl-4-[4-(3-hydroxyphenyl)-3,4-dimethyl-1-piperidinyl]-1-oxobutyl]amino]-acetic acid monohydrate], in assay [1], the “Ratio (AD50 mouse writhing test / ED50 mouse diarrhea test)” value is 51 and it took a dose of 0.3 mg/kg to reach the 50% effect level (ED50). In addition, the Ki at mu receptor stood at 0.91 nM. On mu receptor (read-out: % displacement at 10 nM), the inhibition at 0.01 µM was 92%. Moreover, the inhibition at 0.1 µM on mu receptor (setting [3]) was determined as 99%. Also, at opioid receptor, the AD50 came out at 15.3.
As for `C[C@H]1CN(CCC(C(=O)NCCCC(=O)O)C2CCCCC2)CC[C@@]1(C)c1cccc(O)c1` (relative stereo) [Example 28, 4-[[2-cyclohexyl-4-[4-(3-hydroxyphenyl)-3,4-dimethyl-1-piperidinyl]-1-oxobutyl]amino]-butanoic acid monohydrate], in assay [1], the “Ratio (AD50 mouse writhing test / ED50 mouse diarrhea test)” value was above 4000 and the 50% effect level (ED50) was put at a dose of 0.01 mg/kg. Moreover, at mu receptor, the Ki is 3.09 nM. Moreover, the inhibition at 0.01 µM on mu receptor (setting [2]) was found to be 86%. Moreover, at mu receptor (setting [3]), the inhibition at 0.1 µM was found to be 95%. The compound further displayed an AD50 on opioid receptor above 40.
Consider `CCOC(=O)CNC(=O)C(CC1CCCCC1)CN1CC[C@@](C)(c2cccc(O)c2)[C@@H](C)C1` (relative stereo) [Example 29, 2-[[3-[4-(3-hydroxyphenyl-3,4-dimethyl-1-piperidinyl]-2-cyclohexylmethyl-1-oxopropyl]amino]acetic acid ethyl estermonohydrochloride], for which, in assay [1], the “Ratio (AD50 mouse writhing test / ED50 mouse diarrhea test)” value is on record as 23 and the ED50 amounted to 0.17 mg/kg. At mu receptor, this compound registered a Ki of 2.94 nM. In addition, the inhibition at 0.01 µM on mu receptor (setting [2]) was 98%. Further, the inhibition at 0.1 µM on mu receptor (setting [3]) was determined as 100%. This compound showed an AD50 at opioid receptor of 3.9.
On to `C[C@H]1CN(CC(CC2CCCCC2)C(=O)NCC(=O)O)CC[C@@]1(C)c1cccc(O)c1` (relative stereo) [Example 30, 2-[[3-[4-(3-hydroxyphenyl)-3,4-dimethyl-1-piperidinyl]-2-(cyclohexylmethyl)-1-oxopropyl]-amino]acetic acid monohydrate], for which, in assay [1], the “Ratio (AD50 mouse writhing test / ED50 mouse diarrhea test)” value is reported as above 2353 and the ED50 is 0.017 mg/kg. This compound also came in with an inhibition constant Ki at mu receptor of 0.42 nM. The inhibition at 0.01 µM at mu receptor (setting [2]) is 89%. Also, the inhibition at 0.1 µM at mu receptor (setting [3]) stood at 93%. The compound also gave an AD50 on opioid receptor above 40.
Consider `CCNC(=O)CNC(=O)C(CC1CCCCC1)CN1CC[C@@](C)(c2cccc(O)c2)[C@@H](C)C1` (relative stereo) [Example 31, N-ethyl-2-[[3-[4-(3-hydroxyphenyl)-3,4-dimethyl-1-piperidinyl]-2-(cyclohexylmethyl)-1-oxo-propyl]amino]acetamide monohydrochloride monohydrate], for which, in assay [1], the “Ratio (AD50 mouse writhing test / ED50 mouse diarrhea test)” value turned out to be 38 and the ED50 came to 0.14 mg/kg. On mu receptor, this compound registered a Ki of 0.4 nM. Further, the inhibition at 0.01 µM on mu receptor (setting [2]) stood at 100%. Further, the inhibition at 0.1 µM on mu receptor (setting [4]) was 97%. The compound also displayed an AD50 on opioid receptor of 5.3.
On to `CNC(=O)CNC(=O)C(CC1CCCCC1)CN1CC[C@@](C)(c2cccc(O)c2)[C@@H](C)C1` (relative stereo) [Example 32, N-[2-methylamino-2-oxoethyl]-3-[4-(3-hydroxphenyl)-3,4-dimethyl(-1-piperidinyl]-2-cyclohexylmethylpropanamidemonohydrochloride], for which, in assay [1], the “Ratio (AD50 mouse writhing test / ED50 mouse diarrhea test)” value stood at 45 and the 50% effect level (ED50) was put at a dose of 0.16 mg/kg. The same compound showed a Ki on mu receptor of 0.72 nM. For the same compound, the inhibition at 0.01 µM on mu receptor (setting [2]) is 97%. The inhibition at 0.1 µM at mu receptor (setting [3]) was 100%. At opioid receptor, this compound returned an AD50 of 7.3.
Regarding `C[C@H]1CN(CC(CC2CCCCC2)C(=O)NCC(N)=O)CC[C@@]1(C)c1cccc(O)c1` (relative stereo) [Example 33, 2-[[3-[4-(3-hydroxyphenyl)-3,4-dimethyl-1-piperidinyl]-2-(cyclohexylmethyl)-1-oxophenyl]amino]acetamide monohydrochloride], in assay [1], the “Ratio (AD50 mouse writhing test / ED50 mouse diarrhea test)” value is on record as 60 and the ED50 came to 0.17 mg/kg. The compound further showed a Ki on mu receptor of 1.19 nM. The inhibition at 0.01 µM on mu receptor (setting [2]) was 95%. Moreover, the inhibition at 0.1 µM on mu receptor (setting [3]) was found to be 100%. For the same compound, the AD50 on opioid receptor is reported as 10.2.
Take `C[C@H]1CN(CC(CC2CCCCC2)C(=O)NCCC(=O)OCc2ccccc2)CC[C@@]1(C)c1cccc(O)c1` (relative stereo) [Example 34, 3-[[2-(cyclohexylmethyl)-1-oxo-3-[4-(3-hydroxyphenyl)-3,4-dimethyl-1-piperidinyl]propyl]-amino]propanoic acid phenylmethyl ester monohydrochloride]: in assay [1], the “Ratio (AD50 mouse writhing test / ED50 mouse diarrhea test)” value came to 84 and the ED50 came to 0.18 mg/kg. Besides, the affinity on mu receptor, expressed as Ki, was 36.6 nM. Moreover, the inhibition at 0.01 µM at mu receptor (setting [2]) was 78%. Besides, the inhibition at 0.1 µM at mu receptor (setting [4]) came out at 97%. Moreover, the AD50 on opioid receptor came out at 15.1.

The values above are taken from patent US5250542A, “Peripherally selective piperidine carboxylate opioid antagonists” (Eli Lilly and Company, priority 1992, dated 1993).
